Results taken from article PMC5699933 (Journal of medicinal chemistry, 2017).

Assays:
PAMPA-BBB assay = conditions: in-house conditions; 17 h, 200 μM, 25 °C, triplicate
CYPs = conditions: earlier pharmacokinetic studies; cited from earlier work
[1] = earlier pharmacokinetic studies; cited from earlier work

Compound | Determined Pe (PAMPA-BBB assay) | CYPs inhibition (CYPs) | human microsome metabolism [1]
CNCc1cccc(-c2cncc(CCc3cc(C)cc(N)n3)c2)c1 [Compound 16, 4-Methyl-6-(2-(5-(3-((methylamino)methyl)phenyl)pyridin-3-yl)ethyl)pyridin-2-amine] | 5.56 10^−6 cm s^−1 |  | 
CNCCCc1cncc(CCc2cc(C)cc(N)n2)c1 [Compound 6] |  | very poor | little
CNCc1cccc(-c2cc(F)cc(CCc3cc(C)cc(N)n3)c2)c1 [Compound 18, 6-(2-(5-Fluoro-3′-((methylamino)methyl)-[1,1′-biphenyl]-3-yl)ethyl)-4-methylpyridin-2-amine] | 17.41 10^−6 cm s^−1 |  | 

Second part, led by results:

Determined Pe (PAMPA-BBB assay) | Compound | CYPs inhibition (CYPs) | human microsome metabolism [1]
20.52 ± 0.64 10^−6 cm s^−1 | CNCCCN1c2ccccc2CCc2ccccc21 [Desipramine] |  | 
0.15 ± 0.04 10^−6 cm s^−1 | Cn1c(=O)c2[nH]cnc2n(C)c1=O.O [Theophylline] |  | 
